Active and inactive are the calls of the source. The calls are words filed in the database; no cut-off is given here. Non-standard residues stand in square brackets, D forms with d. Residues, ends and D or L forms follow the SMILES beside them. *: point of attachment. X2 = [N-]=[N+]=N[C@@H](CCCCN)CC(=O)*; Tle = CC(C)(C)[C@H](N)C(=O)O; X3 = C[C@](N)(CCCCN)CC(=O)*
What was measured:
Serum [1] = assay: Metabolic stability in human serum assessed as compound degradation rate at 1 mM by MALDI-TOF mass spectrometry assay; assay type: ADME, cell-free; conditions: 1000 µM
[2] = molecular target: T1, Neurotensin receptor type 1 (Homo sapiens, UniProt P30989); assay: Displacement of [125I]I-Tyr(3)NT from human NTR1
T1 sequence (P30989 whole entry): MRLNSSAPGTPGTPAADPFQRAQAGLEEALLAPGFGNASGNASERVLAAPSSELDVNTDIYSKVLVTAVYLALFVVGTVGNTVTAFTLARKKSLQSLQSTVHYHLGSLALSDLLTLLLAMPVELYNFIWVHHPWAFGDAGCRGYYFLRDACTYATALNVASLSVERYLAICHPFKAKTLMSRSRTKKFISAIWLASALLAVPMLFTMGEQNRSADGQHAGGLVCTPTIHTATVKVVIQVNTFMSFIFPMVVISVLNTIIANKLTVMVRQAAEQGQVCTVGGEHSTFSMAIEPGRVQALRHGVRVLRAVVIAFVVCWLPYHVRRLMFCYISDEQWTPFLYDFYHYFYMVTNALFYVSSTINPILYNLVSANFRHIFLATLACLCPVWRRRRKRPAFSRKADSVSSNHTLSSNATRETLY

Rattus norvegicus [3] = assay: Hypothermic activity in Sprague-Dawley rat assessed as decrease in core body temperature at 5 mg/kg, ip at time of maximal body temperature decrease; assay type: functional; conditions: route intraperitoneal
[4] = molecular target: T1, Neurotensin receptor type 1; assay: Binding affinity to human NTR1
Serum [5] = assay: Metabolic stability in rat serum assessed as compound degradation rate at 1 mM by MALDI-TOF mass spectrometry assay; assay type: ADME, cell-free; conditions: 1000 µM
[6] = molecular target: T1, Neurotensin receptor type 1; assay: Agonist activity at NTR1 in human HT-29 cells assessed as increase in intracellular calcium concentration by FLIPR assay; assay type: functional, cell-based
[7] = Metabolic stability in rat serum assessed as half time of disappearance at 1 mM by MALDI-TOF mass spectrometry assay; assay type: ADME, cell-free; conditions: read-out: T50
Rattus norvegicus [8] = assay: Hypothermic activity in Sprague-Dawley rat assessed as time duration of maximal body temperature decrease at 5 mg/kg, ip; assay type: functional; conditions: route intraperitoneal
[9] = Metabolic stability in human serum assessed as half time of disappearance at 1 mM by MALDI-TOF mass spectrometry assay; assay type: ADME, cell-free; conditions: read-out: T50
Rattus norvegicus [10] = assay: Hypothermic activity in Sprague-Dawley rat assessed as decrease in core body temperature at 5 mg/kg, ip measured up to 150 mins; assay type: functional, organism-based; parameters: dose 5 mg/kg

Row | Compound | Activity (Serum [1]) [µmol/min] | IC50 [2] [nM] | Ki [2] [nM] | Activity (Rattus norvegicus [3]) [°C] | Ki [4] [nM] | Activity (Serum [5]) [µmol/min] | EC50 [6] [nM] | half-life at 1000 µM [7] [h] | Time (Rattus norvegicus [8]) [min] | half-life at 1000 µM [9] [h] | Activity (Rattus norvegicus [10])
1 | CC(C)C[C@H](NC(=O)[C@@H](NC(=O)[C@H](Cc1ccc(O)cc1)NC(=O)[C@@H]1CCCN1C(=O)[C@H](CCCNC(=N)N)NC(=O)C[C@@](C)(N)CCCCN)C(C)(C)C)C(=O)O (X3-RPY[Tle]L-OH) | 0.194 | 13.9 | 10.4 | -2.13 | 9.9 | 0.166 | 6.44 | 49.7 | 150 | 42.8 | 
2 | CC(C)C[C@H](NC(=O)[C@@H](NC(=O)[C@H](Cc1ccc(O)cc1)NC(=O)[C@@H]1CCCN1C(=O)[C@H](CCCNC(=N)N)NC(=O)C[C@H](CCCCN)N=[N+]=[N-])C(C)(C)C)C(=O)O (X2-RPY[Tle]L-OH) | 0.133 | 7.32 | 5.49 | -2.57 | 4.5 | 0.16 | 7.28 | 52 | 120 | 62.7 | 
3 | O=C(CCCN1CCC(O)(c2ccc(Cl)cc2)CC1)c1ccc(F)cc1 [HALOPERIDOL] |  |  |  | -1.34 |  |  |  |  | 90 |  | Active
